Reference: patent EP0241395A2, “Sweeteners derived from n-phenylguanidinoacetic and n-phenylethananamidinacetic acids, and compositions containing such sweeteners” (UNIVERSITE CLAUDE BERNARD - LYON 1, priority 1986, dated 1987)

System: groupe de huit goûteurs expérimentés
Assay: Sweetening power judged by a panel of eight experienced tasters against a sucrose reference solution
Format: in vivo
Conditions: weight basis; for Pouvoir édulcorant: Table II, relative to a 2 % sucrose solution; for pouvoir édulcorant, sur une base pondérale: approximate
From the text: Le pouvoir édulcorant des composés préparés dans les exemples suivants a été évalué par un groupe de huit goûteurs expérimentés. Pour cela, les composés, en solution aqueuse à des concentrations variables, sont comparés, sur le plan gustatif, à une solution témoin de saccharose à 2 % et dans certains cas à 5 % et 10 %, c'est-à-dire à des concentrations correspondant à celles utilisées lors d'un usage courant. Le pouvoir sucrant des édulcorants de synthèse varie en effet suivant la concentration de la solution de saccharose utilisée comme référence. Le pouvoir édulcorant du composé testé par rapport au saccharose correspond alors au rapport pondéral qui existe entre le composé et le saccharose à égale intensité édulcorante, c'est-à-dire quand les saveurs sucrées de la solution du composé testé et de la solution témoin de saccharose sont considérées, par une majorité de goûteurs, avoir la même intensité édulcorante.

[1] = by comparison with a 2 % sucrose solution
[2] = by comparison with a 5 % sucrose solution
[3] = by comparison with a 10 % sucrose solution

SMILES | Pouvoir édulcorant | pouvoir édulcorant, sur une base pondérale [1] | pouvoir édulcorant, sur une base pondérale [2] | pouvoir édulcorant, sur une base pondérale [3]
N#Cc1ccc(N=C(NCC(=O)O)N2CCCCC2)cc1 [Exemple 83, acide N-[N,N-(pentaméthylène)amino (4-cyanophénylimino)méthyl]-2-aminoéthanoïque] | 200 | ~200 fois celui du saccharose |  | 
CSc1ccc(N=C(NCC(=O)O)N[C@@H](C)c2ccccc2)cc1 [Exemple 21, acide N-[N-(S)-a-méthylbenzylamino (4-méthylmercaptophénylimino)méthyl)-2-aminoéthanoïque] | 1200 | ~1200 times sucrose |  | 
N#CN=C(NCC(=O)O)Nc1cccc(Cl)c1 [Exemple 73, acide N-[cyanoimino(3-chlorophénylamino)méthyl]-2-aminoéthanoïque] | 80 | ~80 fois celui du saccharose |  | 
N#Cc1ccc(N=C(NCC(=O)O)Nc2cccc(Cl)c2)cc1 [Exemple 80, acide N-[N-(3-chlorophényl)amino(4-cyanophénylimino)méthyl]-2-aminoéthanoïque] | 10000 |  |  | 
N#Cc1ccc(N=C(NCC(=O)O)NC2CCCCCCC2)cc1Cl [Exemple 49, acide N-[N-cyclooctylamino(3-chloro-4-cyanophénylimino)méthyl]-2-aminoéthanoïque] | 100000 | ~100 000 fois celui du saccharose |  | 
CC(NC(=Nc1cc(Cl)cc(Cl)c1)N[C@H](C)C(=O)O)c1ccccc1 (stereo partly drawn) [Exemple 86, acide (R)-N-[N-(S)-α-méthylbenzylamino(3,5-dichlorophénylimino)méthyl]-2-aminopropanoïque] | 120 | ~120 fois celui du saccharose |  | 
C[C@@H](NC(=Nc1ccc(C#N)cc1)NC1CCCCCCC1)C(=O)O [Exemple 87, acide (R)-N-[N-cyclooctylamino(4-cyanophénylimino)méthyl]-2-aminopropanoïque] | 900 | ~900 fois celui du saccharose |  | 
C[C@H](NC(=Nc1cc(F)cc(F)c1)NCC(=O)O)c1ccccc1 [Exemple 27, acide N-[N-(S)-α-méthylbenzylamine (3,5-difluorophënylimino)méthyl]-2-aminoéthanoïque] | 15000 | ~15 000 fois celui du saccharose |  | 
CN(C(=Nc1ccc(C#N)cc1)NCC(=O)O)c1ccccc1 [Exemple 74, acide N-[N-(N-méthyl-N-phénylamino) (4-cyanophénylimino)méthyl]-2-aminoéthanoïque] | 18000 | ~18 000 fois celui du saccharose |  | 
CC(C)N(C)C(=Nc1ccc(C#N)cc1)NCC(=O)O [Exemple 32, acide N-[N-méthyl-N-1-méthyléthyl-amino(4-cyanophénylimino)méthyl]-2-aminoéthanoïque] | 80 | ~80 fois celui du saccharose |  | 
C[C@H](NC(=Nc1ccccc1)NCC(=O)O)c1ccccc1 [Exemple 1, acide N-[N-(S)-α-méthylbenzylamine (phénylimino)méthyl]-2-aminoéthanoïque] | 5000 | ~5 000 fois celui du saccharose |  | 
C[C@H](NC(=Nc1ccc([N+](=O)[O-])cc1)NCC(=O)O)c1ccccc1 [Exemple 18, acide N-[N-(S)-a-méthylbenzylamino (4-nitrophénylimino)méthyl]-2-aminoéthanoïque] | 7000 | ~7 000 fois celui du saccharose |  | 
C[C@H](NC(=Nc1cc(Cl)cc(Cl)c1)NCC(=O)O)c1ccccc1 [Exemple 26, acide N-[N-(S)-α-méthylbenzylamino (3,5-dichlorophénylimino)méthyl]-2-aminoéthanoïque] | 120000 | ~120 000 fois celui du saccharose | ~90 000 fois celui du saccharose | ~50 000 fois celui du saccharose
N#Cc1ccc(N=C(NCC(=O)O)NCc2ccccc2)cc1 [Exemple 52, acide N-[N-benzylamino(4-cyanophénylimino)méthyl]-2-aminoéthanoïque] | 30000 | ~30 000 fois celui du saccharose | ~27 000 fois celui du saccharose | ~22 000 fois celui du saccharose
O=C(O)CNC(=C[N+](=O)[O-])Nc1cc(Cl)cc(Cl)c1 [Exemple 29, acide N-[2-nitro(3,5-dichlorophénylamino)éthényl]-2-aminoéthanoïque] | 400 | ~400 fois celui du saccharose |  | 
COc1cccc(N=C(NCC(=O)O)N[C@@H](C)c2ccccc2)c1 [Exemple 9, acide N-[N-(S)-ot-méthylbenzylamino (3-méthoxyphénylimino)méthyl]-2-aminoéthanoïque] | 4 500 | ~4 500 fois celui du saccharose |  | 
N#Cc1ccc(N=C(NCC(=O)O)N2CCCC2)cc1 [Exemple 82, acide N-[N,N-(tétraméthylène)amino (4-cyanophénylimino)méthyl]-2-aminoéthanoïque] | 100 | ~100 fois celui du saccharose |  | 
Cc1cccc(NC(=Nc2ccc(C#N)cc2)NCC(=O)O)c1 [Exemple 65, acide N-[N-(3-méthylphényl)amino(4-cyanophénylimino)méthyl]-2-aminoéthanoïque] | 9000 | ~9 000 fois celui du saccharose |  | 
N#Cc1ccc(N=C(NCC(=O)O)Nc2ccc3c(c2)OCO3)cc1 [Exemple 75, acide N-[N-(3,4-méthylènedioxyphényl)amino(4-cyanophénylimino)méthyl]-2-aminoéthanoïque] | 5000 | ~5 000 fois celui du saccharose |  | 
C[C@H](NC(=Nc1ccc(Cl)c(Cl)c1)NCC(=O)O)c1ccccc1 [Exemple 23, acide N-[N-(S) -α-méthylbenzylamino (3,4-dichlorophénylimino)méthyl]-2-aminoéthanoïque] | 17000 | ~17 000 fois celui du saccharose |  | 
N#Cc1ccc(N=C(NCC(=O)O)NC2CCCCC2)cc1 [Exemple 43, acide N-[N-cyclohexylamino(4-cyanophénylimino)méthyl]-2-aminoéthanoïque] | 12000 | ~12 000 fois celui du saccharose | ~10 500 fois celui du saccharose | ~8 500 fois celui du saccharose
CCc1cccc(N=C(NCC(=O)O)N[C@@H](C)c2ccccc2)c1 [Exemple 5, acide N-[N-(S) -α-méthylbenzylamino (3-éthylphénylimino)méthyl]-2-aminoéthanoïque] | 4 500 | ~4 500 fois celui du saccharose |  | 
N#Cc1cccc(N=C(NCC(=O)O)NCC2CCCCC2)c1 [Exemple 56, acide N-[N-cyclohexylméthylamino (3-cyanophénylimino)méthyl]-2-aminoéthanoïque] | 5000 | ~5 000 fois celui du saccharose |  | 
N#Cc1ccc(N=C(NCC(=O)O)Nc2ccccc2)cc1 [Exemple 41, acide N-[N-phénylamino(4-cyanophénylimino)méthyl]-2-aminoéthanoïque] | 4000 | ~4 000 fois celui du saccharose | ~1 800 fois celui du saccharose | ~650 fois celui du saccharose
CCN(Cc1ccccc1)C(=Nc1ccc(C#N)cc1)NCC(=O)O [Exemple 34, acide N-[N-éthyl-N-benzylamino (4-cyanophénylimino)méthyl]-2-aminoéthanoïque] | 3000 | ~3 000 fois celui du saccharose |  | 
C[C@@H](NC(=Nc1ccc(C#N)cc1)NC1CCCCC1)C(=O)O [Exemple 85, acide (R)-N-[N-cyclohexylamino (4-cyanophénylimino)méthyl]-2-aminopropanoïque] | 100 | ~100 fois celui du saccharose |  | 
Cc1cc(NC(=NC2CCCCCCC2)NCC(=O)O)ccc1C#N [Exemple 48, acide N-[N-cyclooctylamino(4-cyano-3-méthylphénylimino)méthyl]-2-aminoéthanoïque] | 80000 | ~80 000 fois celui du saccharose |  | 
C[C@H](NC(=Nc1cccc(C(F)(F)F)c1)NCC(=O)O)c1ccccc1 [Exemple 3] | 7 500 | ~7 500 fois celui du saccharose |  | 
CC(C)(C)CC(C)(C)NC(=Nc1ccc(C#N)cc1)NCC(=O)O [Exemple 39, acide N-[N-(1,1,3,3-tétraméthylbut-yl)amino(4-cyanophénylimino)méthyl]-2-aminoéthanoïque] | 1 200 | ~1 200 fois celui du saccharose |  | 
CC1(C)SC(C)(C)C1NC(=Nc1ccc(C#N)cc1)NCC(=O)O [Exemple 78, acide N-[N-(2,2,4,4-tétraméthylthiacyclobut-3-yl)amino(4-cyanophénylimino)méthyl]-2-amino-éthanoïque] | 700 | ~700 fois celui du saccharose |  | 
